Laboratory results published in the supplement of paper PMC10307832.

How the values were obtained:
Assay in all cases: relative viability (nuclei count vs DMSO), 5 days (fraction); higher = more cells survive
[1] = compound: CCN(CCO)CCCC(C)Nc1ccnc2cc(Cl)ccc12 [Hydroxychloroquine] + CS(=O)(=O)N1CCN(Cc2cc3nc(-c4cccc5[nH]ncc45)nc(N4CCOCC4)c3s2)CC1 [Pictilisib] (partner 1 µM)
Procedure, shortened: (§1)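 Dosing by pin tool came one day after lung cancer cell lines were seeded in 1536-well plates, using either one drug or a fixed anchor-drug dose plus five library-drug doses (not always all listed) in √10 steps. After 5 days, nuclei were counted on 4× images. Relative viability is treated-well nuclei count divided by vehicle-well nuclei count, and values are medians of duplicate plates.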

[2] = compound: CCN(CCO)CCCC(C)Nc1ccnc2cc(Cl)ccc12 [Hydroxychloroquine] + CC(=O)c1c(C)c2cnc(Nc3ccc(N4CCNCC4)cn3)nc2n(C2CCCC2)c1=O [Palbociclib] (partner 0.5 µM)
Procedure, shortened: as §1

[3] = compound: CCN(CCO)CCCC(C)Nc1ccnc2cc(Cl)ccc12 [Hydroxychloroquine] + COc1cc2c(Oc3ccc(NC(=O)C4(C(=O)Nc5ccc(F)cc5)CC4)cc3F)ccnc2cc1OCCCN1CCOCC1 [Foretinib] (partner 0.25 µM)
Procedure, shortened: as §1

[4] = compound: CCN(CCO)CCCC(C)Nc1ccnc2cc(Cl)ccc12 [Hydroxychloroquine] + CC(C)C[C@H](NC(=O)[C@H](Cc1ccccc1)NC(=O)c1cnccn1)B(O)O [Bortezomib] (partner 0.002 µM)
Procedure, shortened: as §1

PC-3 [JPC-3]
relative viability ([1]; first compound 0.5 µM): 0.79
relative viability ([1]; first compound 1.581 µM): 0.696
relative viability ([1]; first compound 5 µM): 0.693
relative viability ([1]; first compound 15.81 µM): 0.674
relative viability ([1]; first compound 50 µM): 0.784
relative viability ([2]; first compound 0.5 µM): 0.538
relative viability ([2]; first compound 1.581 µM): 0.576
relative viability ([2]; first compound 5 µM): 0.59
relative viability ([2]; first compound 15.81 µM): 0.561
relative viability ([2]; first compound 50 µM): 0.511
relative viability ([3]; first compound 0.5 µM): 1.07
relative viability ([3]; first compound 1.581 µM): 1.14
relative viability ([3]; first compound 5 µM): 0.99
relative viability ([3]; first compound 15.81 µM): 1.02
relative viability ([3]; first compound 50 µM): 1.07
relative viability ([4]; first compound 0.5 µM): 0.787
relative viability ([4]; first compound 1.581 µM): 0.841
relative viability ([4]; first compound 5 µM): 0.812
relative viability ([4]; first compound 15.81 µM): 0.694
relative viability ([4]; first compound 50 µM): 0.94

PC-14
relative viability ([1]; first compound 0.5 µM): 0.7
relative viability ([1]; first compound 1.581 µM): 0.687
relative viability ([1]; first compound 5 µM): 0.683
relative viability ([1]; first compound 15.81 µM): 0.595
relative viability ([1]; first compound 50 µM): 0.78
relative viability ([2]; first compound 0.5 µM): 0.481
relative viability ([2]; first compound 1.581 µM): 0.545
relative viability ([2]; first compound 5 µM): 0.535
relative viability ([2]; first compound 15.81 µM): 0.554
relative viability ([2]; first compound 50 µM): 0.394
relative viability ([3]; first compound 0.5 µM): 0.909
relative viability ([3]; first compound 1.581 µM): 0.987
relative viability ([3]; first compound 5 µM): 1.01
relative viability ([3]; first compound 15.81 µM): 0.972
relative viability ([3]; first compound 50 µM): 0.962
relative viability ([4]; first compound 0.5 µM): 0.783
relative viability ([4]; first compound 1.581 µM): 0.959
relative viability ([4]; first compound 5 µM): 0.925
relative viability ([4]; first compound 15.81 µM): 0.788
relative viability ([4]; first compound 50 µM): 0.852

RERF-LC-KJ
relative viability ([1]; first compound 0.5 µM): 0.43
relative viability ([1]; first compound 1.581 µM): 0.518
relative viability ([1]; first compound 5 µM): 0.55
relative viability ([1]; first compound 15.81 µM): 0.488
relative viability ([1]; first compound 50 µM): 0.603
relative viability ([2]; first compound 0.5 µM): 0.838
relative viability ([2]; first compound 1.581 µM): 1.16
relative viability ([2]; first compound 5 µM): 1.03
relative viability ([2]; first compound 15.81 µM): 1.12
relative viability ([2]; first compound 50 µM): 1.06
relative viability ([3]; first compound 0.5 µM): 0.757
relative viability ([3]; first compound 1.581 µM): 0.825
relative viability ([3]; first compound 5 µM): 0.872
relative viability ([3]; first compound 15.81 µM): 0.918
relative viability ([3]; first compound 50 µM): 0.941
relative viability ([4]; first compound 0.5 µM): 1.15
relative viability ([4]; first compound 1.581 µM): 1.1
relative viability ([4]; first compound 5 µM): 0.984
relative viability ([4]; first compound 15.81 µM): 1.15
relative viability ([4]; first compound 50 µM): 1.08

SK-LU-1
relative viability ([1]; first compound 0.5 µM): 0.567
relative viability ([1]; first compound 1.581 µM): 0.529
relative viability ([1]; first compound 5 µM): 0.568
relative viability ([1]; first compound 15.81 µM): 0.474
relative viability ([1]; first compound 50 µM): 0.543
relative viability ([2]; first compound 0.5 µM): 0.381
relative viability ([2]; first compound 1.581 µM): 0.382
relative viability ([2]; first compound 5 µM): 0.432
relative viability ([2]; first compound 15.81 µM): 0.361
relative viability ([2]; first compound 50 µM): 0.431
relative viability ([3]; first compound 0.5 µM): 0.849
relative viability ([3]; first compound 1.581 µM): 0.769
relative viability ([3]; first compound 5 µM): 0.834
relative viability ([3]; first compound 15.81 µM): 0.787
relative viability ([3]; first compound 50 µM): 0.926
relative viability ([4]; first compound 0.5 µM): 1.27
relative viability ([4]; first compound 1.581 µM): 1.04
relative viability ([4]; first compound 5 µM): 1.29
relative viability ([4]; first compound 15.81 µM): 1.18
relative viability ([4]; first compound 50 µM): 1.37

SW 1573
relative viability ([1]; first compound 0.5 µM): 0.484
relative viability ([1]; first compound 1.581 µM): 0.392
relative viability ([1]; first compound 5 µM): 0.535
relative viability ([1]; first compound 15.81 µM): 0.528
relative viability ([1]; first compound 50 µM): 0.603
relative viability ([2]; first compound 0.5 µM): 0.369
relative viability ([2]; first compound 1.581 µM): 0.359
relative viability ([2]; first compound 5 µM): 0.374
relative viability ([2]; first compound 15.81 µM): 0.34
relative viability ([2]; first compound 50 µM): 0.38
relative viability ([3]; first compound 0.5 µM): 1.06
relative viability ([3]; first compound 1.581 µM): 0.774
relative viability ([3]; first compound 5 µM): 1.08
relative viability ([3]; first compound 15.81 µM): 0.686
relative viability ([3]; first compound 50 µM): 0.871
relative viability ([4]; first compound 0.5 µM): 0.966
relative viability ([4]; first compound 1.581 µM): 1.17
relative viability ([4]; first compound 5 µM): 0.931
relative viability ([4]; first compound 15.81 µM): 0.947
relative viability ([4]; first compound 50 µM): 1.1

UMC-11
relative viability ([1]; first compound 0.5 µM): 0.843
relative viability ([1]; first compound 1.581 µM): 0.542
relative viability ([1]; first compound 5 µM): 0.752
relative viability ([1]; first compound 15.81 µM): 0.844
relative viability ([1]; first compound 50 µM): 1.03
relative viability ([2]; first compound 0.5 µM): 0.285
relative viability ([2]; first compound 1.581 µM): 0.304
relative viability ([2]; first compound 5 µM): 0.413
relative viability ([2]; first compound 15.81 µM): 0.311
relative viability ([2]; first compound 50 µM): 0.305
relative viability ([3]; first compound 1.581 µM): 0.978
relative viability ([3]; first compound 5 µM): 1.12
relative viability ([3]; first compound 15.81 µM): 1.04
relative viability ([3]; first compound 50 µM): 1.19
relative viability ([4]; first compound 0.5 µM): 0.626
relative viability ([4]; first compound 1.581 µM): 0.822
relative viability ([4]; first compound 5 µM): 0.863
relative viability ([4]; first compound 15.81 µM): 0.657
relative viability ([4]; first compound 50 µM): 1.15
